Results on eleven molecules are retold here after WO2005063245A1, “Composition for lowering blood pressure” (priority 2003, dated 2005).

One data set is described as follows: Test example 6: test of blood pressure lowering effect using SHR rats, samples (16)-(30) (Table 9). It is filed as in vivo, rat. The settings on record: oral, n=5, 0 h (before administration), mean ± SE, dose mg/kg: 17: 500, 18: 1.5, 19: 3.0, 20, 21, 24, 26, 27, 28, 30: 50, 22, 23: 20, 25, 29: 100.
Regarding bovine serum albumin [Sample 17], the systolic blood pressure is given as 186 + 2.2 mmH.

The data set is the same for the next values; noted with them: oral, n=5, 2 h after administration, mean ± SE, dose mg/kg: 17: 500, 18: 1.5, 19: 3.0, 20, 21, 24, 26, 27, 28, 30: 50, 22, 23: 20, 25, 29: 100.
bovine serum albumin [Sample 17]: the systolic blood pressure is reported as 169 + 1.8 mmH.

Staying with this data set, now noted: oral, n=5, 4 h after administration, mean ± SE, dose mg/kg: 17: 500, 18: 1.5, 19: 3.0, 20, 21, 24, 26, 27, 28, 30: 50, 22, 23: 20, 25, 29: 100.
Molecule bovine serum albumin [Sample 17] had a systolic blood pressure of 170 ± 0.5 mmH.

A further data set is described as follows: Blood pressure lowering effect of samples (31)-(38) in SHR rats, same manner as Test example 6 (Table 11). It is filed as in vivo, rat. The settings on record: oral, n=5, 0 h (before administration), mean ± SE, dose mg/kg: 32, 33, 35, 36, 37: 20, 34: 23.4, 38: 32.4.
Turning to `CC(C)C[C@H](N)C(=O)O` [Sample 21, Leucine], the systolic blood pressure amounted to 189±1.7.

For `N[C@@H](Cc1c[nH]cn1)C(=O)O` [Sample 23, Histidine], the systolic blood pressure is 186+1.7.

In turn, `N[C@@H](Cc1ccccc1)C(=O)O` [Sample 37, phenylalanine] gave a systolic blood pressure of 191±1.5.

`N[C@@H](Cc1ccc(O)cc1)C(=O)O` [Sample 38, Tyrosine, reference compound] showed a systolic blood pressure of 189±1.7.

Staying with this data set, now noted: oral, n=5, 0 h (before administration), mean ± SE, dose mg/kg: 32, 33, 35, 36, 37: 20, 34: 23.4, 38: 32.4, in mmHg.
Consider `N[C@@H](CO)C(=O)O` [Sample 36, Serine], for which the systolic blood pressure is recorded as 190+2.0.

The same data set, now with this note: oral, n=5, 2 h after administration, mean ± SE, dose mg/kg: 32, 33, 35, 36, 37: 20, 34: 23.4, 38: 32.4.
Molecule `CC[C@H](C)[C@H](N)C(=O)O` [Sample 20, Isoleucine] yielded a systolic blood pressure of 163±2.5.

As to `CC(C)C[C@H](N)C(=O)O` [Sample 21, Leucine], the systolic blood pressure amounted to 162±1.0.

Turning to `N[C@@H](Cc1c[nH]cn1)C(=O)O` [Sample 23, Histidine], the systolic blood pressure is 152+3.3.

In turn, `N[C@@H](CCC(=O)[O-])C(=O)[O-].[Na+].[Na+]` [Sample 25, Sodium glutamate] had a systolic blood pressure of 165±2.

As to `N[C@@H](CO)C(=O)O` [Sample 36, Serine], the systolic blood pressure is recorded as 164±1.4.

As to `N[C@@H](Cc1ccc(O)cc1)C(=O)O` [Sample 38, Tyrosine, reference compound], the systolic blood pressure worked out at 161 ±1.8.

Still in this data set, the particulars now being: oral, n=5, 4 h after administration, mean ± SE, dose mg/kg: 32, 33, 35, 36, 37: 20, 34: 23.4, 38: 32.4.
For `CC[C@H](C)[C@H](N)C(=O)O` [Sample 20, Isoleucine], the systolic blood pressure is 162+2.6.

`CC(C)C[C@H](N)C(=O)O` [Sample 21, Leucine] came in with a systolic blood pressure of 162±2.7.

As for `N[C@@H](Cc1c[nH]cn1)C(=O)O` [Sample 23, Histidine], the systolic blood pressure is on record as 157±1.6.

`N[C@@H](CO)C(=O)O` [Sample 36, Serine] came in with a systolic blood pressure of 158±3.7.

`N[C@@H](Cc1ccccc1)C(=O)O` [Sample 37, phenylalanine] came in with a systolic blood pressure of 165±1.7.

With `N[C@@H](Cc1ccc(O)cc1)C(=O)O` [Sample 38, Tyrosine, reference compound], the systolic blood pressure came to 159±1.1.

Staying with this data set, now noted: oral, n=5, column after 4 h, time not printed in this copy (line cut), dose mg/kg: 32, 33, 35, 36, 37: 20, 34: 23.4, 38: 32.4.
As for `CC[C@H](C)[C@H](N)C(=O)O` [Sample 20, Isoleucine], the systolic blood pressure is recorded as 180.

For the molecule `CC(C)C[C@H](N)C(=O)O` [Sample 21, Leucine], the systolic blood pressure came to 174.

Molecule `N[C@@H](Cc1c[nH]cn1)C(=O)O` [Sample 23, Histidine] came in with a systolic blood pressure of 171.

Consider `N[C@@H](CCC(=O)[O-])C(=O)[O-].[Na+].[Na+]` [Sample 25, Sodium glutamate], for which the systolic blood pressure is listed as 177.

`N[C@@H](CO)C(=O)O` [Sample 36, Serine] showed a systolic blood pressure of 172.

For `N[C@@H](Cc1ccccc1)C(=O)O` [Sample 37, phenylalanine], the systolic blood pressure was found to be 175.

Consider `N[C@@H](Cc1ccc(O)cc1)C(=O)O` [Sample 38, Tyrosine, reference compound], for which the systolic blood pressure is 169.

Another data set in a line: Oral administration experiment with SHR rats (summary statement). Format: in vivo, rat. To be noted: SHR rats, oral administration.
Turning to `CC[C@H](C)[C@H](N)C(=O)O` [Sample 20, Isoleucine], the “blood pressure during systole and diastole” value is “significantly reduce blood pressure during systole and diastole”; the “effect on heart rate” value is listed as “without affecting the heart rate”.

`CC(C)C[C@H](N)C(=O)O` [Sample 21, Leucine]: the “blood pressure during systole and diastole” value was “significantly reduce blood pressure during systole and diastole”.

For `N[C@@H](Cc1c[nH]cn1)C(=O)O` [Sample 23, Histidine], the “blood pressure during systole and diastole” value was “significantly reduce blood pressure during systole and diastole”; the “effect on heart rate” value was “without affecting the heart rate”.

`N[C@@H](CO)C(=O)O` [Sample 36, Serine]: the “blood pressure during systole and diastole” value is “significantly reduce blood pressure during systole and diastole”.

Regarding `N[C@@H](Cc1ccccc1)C(=O)O` [Sample 37, phenylalanine], the “blood pressure during systole and diastole” value was “significantly reduce blood pressure during systole and diastole”; the “effect on heart rate” value is “without affecting the heart rate”.

Regarding `N[C@@H](CCC(=O)O)C(=O)O` [glutamic acid], the “blood pressure during systole and diastole” value was “significantly reduce blood pressure during systole and diastole”; the “effect on heart rate” value is on record as “without affecting the heart rate”.

The same data set, now with this note: rat, in vivo, po.
For the molecule `CC(C)C[C@H](N)C(=O)O` [Sample 21, Leucine], the “effect on heart rate” value is “without affecting the heart rate”.

Turning to `N[C@@H](CO)C(=O)O` [Sample 36, Serine], the “effect on heart rate” value is listed as “without affecting the heart rate”.

Experiment in the next data set: not given
To be noted: rats, intraperitoneal; Non-Patent Documents 5 and 6; cited from earlier work.
Regarding `N[C@@H](Cc1c[nH]c2ccccc12)C(=O)O` [L-tributophan], the “blood pressure lowering effect” value was “blood pressure lowering effect”.

`N[C@@H](Cc1ccc(O)cc1)C(=O)O` [Sample 38, Tyrosine, reference compound]: the “blood pressure lowering effect” value was “blood pressure lowering effect”.

Experiment in the next data set: not given
To be noted: Non-Patent Document 4; cited from earlier work.
Consider `N=C(N)NCCC[C@H](N)C(=O)O` [Sample 22, Arginine], for which the “blood pressure lowering effect” value was “blood pressure lowering effect in systole and diastole”; the heart rate result is listed as “increase in heart rate”.
